Test results as given in BindingDB's records for doi:10.1016/s0968-0896(99)00127-3 (Sankyo, 1999).

Target: T1, Dimer of Gag-Pol polyprotein [489-587] (Human immunodeficiency virus 1, UniProt P12497)
T1 construct: 489-587
Test: Protease Inhibition Assay
Method: The inhibitory activities of the compounds toward HIV-1 PR were determined by sodium dodecyl sulfate-polyacrylamide gel electrophoresis (SDS-PAGE) assay. The IC50 values of active compounds were determined using the partially purified protease and the synthetic substrate Ac-Ser-Gln-AsnTyr-Pro-Ile-Val-NH2.

Row | SMILES | IC50 [nM]
1 | Cc1c(O)cccc1C(=O)N[C@@H](Cc1ccc(F)c(F)c1)[C@H](O)C(=O)N1C[C@@H](Cl)C[C@H]1C(=O)NC(C)(C)C [(2S,4S)-N-tert-butyl-4-chloro-1-[(2S,3S)-4-(3,4-difluorophenyl)-2-hydroxy-3-[(3-hydroxy-2-methylphenyl)formamido]butanoyl]pyrrolidine-2-carboxamide] | 0.8
2 | Cc1c(O)cccc1C(=O)N[C@@H](Cc1ccc2sccc2c1)[C@H](O)C(=O)N1C[C@@H](Cl)C[C@H]1C(=O)NC(C)(C)C [(2S,4S)-1-[(2S,3S)-4-(1-benzothiophen-5-yl)-2-hydroxy-3-[(3-hydroxy-2-methylphenyl)formamido]butanoyl]-N-tert-butyl-4-chloropyrrolidine-2-carboxamide] | 1.4
3 | Cc1ccc(O)c(C)c1C(=O)N[C@@H](Cc1ccc2ccccc2c1)[C@H](O)C(=O)N1C[C@@H](Cl)C[C@H]1C(=O)NC(C)(C)C [(2S,4S)-N-tert-butyl-4-chloro-1-[(2S,3S)-2-hydroxy-3-[(3-hydroxy-2,6-dimethylphenyl)formamido]-4-(naphthalen-2-yl)butanoyl]pyrrolidine-2-carboxamide] | 2.8
4 | Cc1ccc(O)c(C)c1C(=O)N[C@@H](Cc1ccc(C(F)(F)F)cc1)[C@H](O)C(=O)N1C[C@@H](Cl)C[C@H]1C(=O)NC(C)(C)C | 3.9
5 | Cc1cc(O)c(C)c(C(=O)N[C@@H](Cc2ccc3ccccc3c2)[C@H](O)C(=O)N2C[C@@H](Cl)C[C@H]2C(=O)NC(C)(C)C)c1 [(2S,4S)-N-tert-butyl-4-chloro-1-[(2S,3S)-2-hydroxy-3-[(3-hydroxy-2,5-dimethylphenyl)formamido]-4-(naphthalen-2-yl)butanoyl]pyrrolidine-2-carboxamide] | 0.8
6 | Cc1ccccc1C[C@H](NC(=O)c1cccc(O)c1C)[C@H](O)C(=O)N1C[C@@H](Cl)C[C@H]1C(=O)NC(C)(C)C [(2S,4S)-N-tert-butyl-4-chloro-1-[(2S,3S)-2-hydroxy-3-[(3-hydroxy-2-methylphenyl)formamido]-4-(2-methylphenyl)butanoyl]pyrrolidine-2-carboxamide] | 4.5
7 | Cc1ccccc1C[C@H](NC(=O)c1c(C)ccc(O)c1C)[C@H](O)C(=O)N1C[C@@H](Cl)C[C@H]1C(=O)NC(C)(C)C [(2S,4S)-N-tert-butyl-4-chloro-1-[(2S,3S)-2-hydroxy-3-[(3-hydroxy-2,6-dimethylphenyl)formamido]-4-(2-methylphenyl)butanoyl]pyrrolidine-2-carboxamide] | 34.3
8 | Cc1ccc(C(=O)N[C@@H](Cc2ccc(C(F)(F)F)cc2)[C@H](O)C(=O)N2C[C@@H](Cl)C[C@H]2C(=O)NC(C)(C)C)c(C)c1O [(2S,4S)-N-tert-butyl-4-chloro-1-[(2S,3S)-2-hydroxy-3-[(3-hydroxy-2,4-dimethylphenyl)formamido]-4-[4-(trifluoromethyl)phenyl]butanoyl]pyrrolidine-2-carboxamide] | 6.3
9 | Cc1cccc(C[C@H](NC(=O)c2cc(C)cc(O)c2C)[C@H](O)C(=O)N2C[C@@H](Cl)C[C@H]2C(=O)NC(C)(C)C)c1 | 1.3
10 | Cc1ccc(C[C@H](NC(=O)c2c(C)ccc(O)c2C)[C@H](O)C(=O)N2C[C@@H](Cl)C[C@H]2C(=O)NC(C)(C)C)cc1 | 3.6
11 | Cc1cccc(C[C@H](NC(=O)c2cccc(O)c2C)[C@H](O)C(=O)N2C[C@@H](Cl)C[C@H]2C(=O)NC(C)(C)C)c1 [(3-Hydroxy-2-methylbenzoyl)-(2(S)-hydroxy-3(S)-amino-4-m-tolylbutanoyl)-4(S)-Cl-Pro-NH-t-Bu] | 0.6
12 | Cc1c(O)cccc1C(=O)N[C@@H](Cc1ccc(C(F)(F)F)cc1)[C@H](O)C(=O)N1C[C@@H](Cl)C[C@H]1C(=O)NC(C)(C)C [(2S,4S)-N-tert-butyl-4-chloro-1-[(2S,3S)-2-hydroxy-3-[(3-hydroxy-2-methylphenyl)formamido]-4-[4-(trifluoromethyl)phenyl]butanoyl]pyrrolidine-2-carboxamide] | 0.6
